Data from patent US11970515B1, “Crystal form of Brassinosteroid (BR) analogue, and preparation method and use thereof” (CHENGDU NEWSUN CROP SCIENCE CO., LTD., priority 2021, dated 2024).

What was measured:
[1] = Stability test of crystal forms in high-temperature environment at 80° C.±2° C.; type: physicochemical
Description: Appropriate amounts of the crystal form I and crystal form II were separately placed in a high-temperature environment at 80° C.±2° C. for stability experiments, and the experimental results were shown in Table 1.

Solubility in ethanol = type: physicochemical; conditions: different temperatures
Description: (§1) 2. Solubility Research • (1) 50 mg of the crystal form I and crystal form II were separately added to a test tube, slowly added with ethanol dropwise at different temperatures while conducting vibration until completely dissolved. Weighing was conducted and a total mass was recorded, converted into volume, expressed as mg/mL. The experimental results were shown in FIG. 11 and FIG. 12. • (2) 50 mg of the crystal form I and crystal form II were separately added to a test tube, slowly added with water dropwise at different temperatures while conducting vibration until completely dissolved. Weighing was conducted and a total mass was recorded, converted into volume, expressed as mg/mL.

tobacco seedlings [2] = experiment: Promoting cold resistance of tobacco (chlorophyll fluorescence after 4° C. cold injury); type: in vivo
Description: The example of the present disclosure provided use of the novel crystal form II in promoting stress resistance of plants, specifically an experiment of promoting cold resistance of tobacco was taken as an example, the steps were as follows:
In the present disclosure, the novel crystal form II was prepared with anhydrous ethanol into a 10 mg/ml mother solution, and used immediately during the experiment.
After the treatment agents were prepared according to Table 6, the leaves of the tobacco seedlings were evenly sprayed in the morning. […] After 1 d of recovery, cold injury (4° C.) treatment was conducted, while other conditions remained the same as those during normal culture. The chlorophyll fluorescence QY-max parameter (theoretical maximum photosynthetic capacity) and Fv/Fm (maximum photon yield of PSII) of tobacco were recorded before drug treatment, after 6 h and 24 h of low-temperature treatment, and after 24 h of recovery at room temperature (25° C.) separately with a plant phenotype instrument.
QY-max represents the theoretical maximum photosynthetic capacity of plants, and the smaller its reduction rate, the better the plant's low-temperature resistance. Fv/Fm-lss represents the maximum photon yield of PSII, similar to QY-max, the smaller its reduction rate, the better the plant's low-temperature resistance. […] Afterwards, each treatment was placed at room temperature (25° C.) for recovery.

Solubility in water = type: physicochemical; conditions: different temperatures
Description: as §1

tobacco seedlings [3] = experiment: Promoting growth of tobacco seedlings (leaf spray, leaf area growth rate); type: in vivo; conditions: for Growth-promoting effect (in words): 7 d after treatment; for 7-day leaf area growth rate (%): leaf spray, 7 d
Description: The example of the present disclosure provided use of the novel crystal form I and the novel crystal form II in promoting plant growth, specifically an experiment of promoting growth of tobacco seedlings was taken as an example, the steps were as follows:
In the present disclosure, the novel crystal form I and the novel crystal form II each were prepared with anhydrous ethanol into a 10 mg/ml mother solution, and used immediately during the experiment.
Tobacco seedlings with a seedling age of 7 d were transplanted and planted in a cultivation room, and the seedlings were subjected to recovery for 2 d before testing. After the treatment agent was formulated according to the experimental design, the leaves of the tobacco seedlings were evenly sprayed, and each treatment was repeated 3 times, with 2 plants in each repetition, that is, 6 seedlings in each treatment. […] The RGB AREA_MM parameter (leaf area/mm^2) of the tobacco was recorded with a plant phenotype instrument before and 7 d […], and a growth rate of the leaf area was calculated to evaluate a growth-promoting effect of the drug. The formula for calculating a leaf area growth rate was as follows: Growth rate (%)=(final leaf area−initial leaf area)×100%/initial leaf area

corn seeds = experiment: Immersing corn seeds to promote germination and growth of corn; type: in vivo; conditions: for Bud vigor index / Root vigor index / Germination rate (%): 7th day; for Germination rate (%): seeds immersed 24 h
Description: The example of the present disclosure provided use of the novel crystal form I and the novel crystal form II in promoting plant growth, specifically an experiment of immersing corn seeds to promote germination and growth of corn was taken as an example, the steps were as follows:
In the present disclosure, the novel crystal form I was prepared with anhydrous ethanol into a 10 mg/ml mother solution, and used immediately during the experiment.
The agents were prepared according to the experimental design. 20 normal plump corn seeds were selected, placed in the agent, and immersed at 26° C. for 24 h. The seeds were washed with water, placed in a culture box and placed in a constant-temperature incubator for germination. The germination was conducted in 2 periods: 14 h of light illumination, at 28° C.; 10 h in the dark, at 25° C., and for 7 d. Each treatment was repeated 3 times. During the whole experiment, 5 ml of water was regularly added with a pipette at 9:00 every day to keep the culture box moist. After 7 days, the germination rate was counted, the shoot length and root length were measured, and the root vigor and shoot vigor were calculated. Germination rate=germinated number of seeds treated on 7th day/total number of treated seeds×100%; Bud vigor index=germination rate of 7th day×seedling bud length of 7th day; Root vigor index=germination rate of 7th day×seedling root length of 7th day.

[4] = 0.003 ppm, low-temperature (4° C.) treatment for 6 h
[5] = 0.003 ppm, low-temperature (4° C.) treatment for 24 h
[6] = 0.003 ppm, room-temperature (25° C.) recovery for 24 h
[7] = 0.03 ppm, low-temperature (4° C.) treatment for 6 h
[8] = 0.03 ppm, low-temperature (4° C.) treatment for 24 h
[9] = 0.03 ppm, room-temperature (25° C.) recovery for 24 h
[10] = 0.3 ppm, low-temperature (4° C.) treatment for 6 h
[11] = 0.3 ppm, low-temperature (4° C.) treatment for 24 h
[12] = 0.3 ppm, room-temperature (25° C.) recovery for 24 h

## CC(C)(O)CC[C@@H](O)[C@](C)(O)C1CC[C@@]2(O)[C@H]3CC(=O)[C@@H]4C[C@@H](O)[C@@H](O)C[C@]4(C)[C@H]3CC[C@]12C (single isomer, unassigned) [Novel crystal form II]
[1]
  Stability in high-temperature environment (in words): highly stable in the high-temperature environment, and no crystal form change occurred
[1]; test time 0 d
  Content (%): 99.87%
  Content of other substances (%): 0.13%
  XRPD: Unchanged
[1]; test time 5 d
  Content (%): 99.84%
  Content of other substances (%): 0.16%
  XRPD: Unchanged
[1]; test time 10 d
  Content (%): 99.87%
  Content of other substances (%): 0.13%
  XRPD: Unchanged
Solubility in ethanol
  Solubility in ethanol (in words): desirable solubility
Tobacco seedlings [2]; [4]
  Fv/Fm-lss change rate (%): −30.1 ± 0.22%
  QY-max change rate (%): −10.4 ± 0.13%
Tobacco seedlings [2]; [5]
  Fv/Fm-lss change rate (%): −46.1 ± 0.28%
  QY-max change rate (%): −31.0 ± 0.18%
Tobacco seedlings [2]; [6]
  Fv/Fm-lss change rate (%): −16.2 ± 0.27%
  QY-max change rate (%): −10.0 ± 0.24%
Tobacco seedlings [2]; 0.03 ppm, after 6 h of low-temperature treatment
  Reduction rate of QY-max and Fv/Fm-lss versus water control (in words): significantly lower than that of the water control
Tobacco seedlings [2]; 0.03 ppm, after 24 h of recovery at room temperature
  Recovery effect, comparison of concentrations (in words): the best
Tobacco seedlings [2]; [7]
  Fv/Fm-lss change rate (%): −14.3 ± 0.13%
  QY-max change rate (%): −3.6 ± 0.33%
Tobacco seedlings [2]; [8]
  Fv/Fm-lss change rate (%): −33.4 ± 0.12%
  QY-max change rate (%): −27.6 ± 0.16%
Tobacco seedlings [2]; [9]
  Fv/Fm-lss change rate (%): 0.3 ± 0.16%
  QY-max change rate (%): −0.6 ± 0.18%
Tobacco seedlings [2]; [10]
  Fv/Fm-lss change rate (%): −26.4 ± 0.27%
  QY-max change rate (%): −7.9 ± 0.25%
Tobacco seedlings [2]; [11]
  Fv/Fm-lss change rate (%): −44.4 ± 0.25%
  QY-max change rate (%): −30.0 ± 0.27%
Tobacco seedlings [2]; [12]
  Fv/Fm-lss change rate (%): −4.5 ± 0.21%
  QY-max change rate (%): −5.2 ± 0.13%
Tobacco seedlings [2]; each concentration, after 24 h of recovery at room temperature
  Recovery effect versus clean water control (in words): better than that of the clean water control
Tobacco seedlings [2]; in vivo
  Low-temperature resistance, summary (in words): bioactivity of anti-low temperature
Solubility in water
  Solubility in water (in words): desirable solubility
Tobacco seedlings [3]; 0.003 ppm
  Growth-promoting effect (in words): obvious growth-promoting effects
  7-day leaf area growth rate (%): 169.02 ± 0.26%
Tobacco seedlings [3]; 0.03 ppm
  7-day leaf area growth rate (%): 153.44 ± 0.19%
Tobacco seedlings [3]; 0.3 ppm
  7-day leaf area growth rate (%): 150.31 ± 0.39%

## CC(C)(O)CC[C@@H](O)[C@](C)(O)C1CC[C@@]2(O)[C@H]3CC(=O)[C@@H]4C[C@@H](O)[C@@H](O)C[C@]4(C)[C@H]3CC[C@]12C (single isomer, unassigned) [Novel crystal form I]
Corn seeds; 0.003 ppm
  Bud vigor index: 7.77 ± 0.36
  Root vigor index: 8.80 ± 0.29
  Germination rate (%): 72.12 ± 1.15%
Corn seeds; 0.03 ppm
  Effect on root and bud vigor indexes versus control CK (in words): best effect, which was obviously better than that of the control CK
  Germination effect on corn compared with the water control (in words): germination-promoting effect
  Bud vigor index: 10.93 ± 0.17
  Root vigor index: 10.89 ± 0.24
  Germination rate (%): 77.34 ± 1.99%
Corn seeds; 0.3 ppm
  Bud vigor index: 9.26 ± 0.24
  Root vigor index: 9.77 ± 0.53
  Germination rate (%): 75.38 ± 2.37%
Corn seeds; in vivo
  Effect on root and bud vigor indexes (in words): effect of improving the root vigor index and bud vigor index
[1]
  Stability in high-temperature environment (in words): highly stable in the high-temperature environment, and no crystal form change occurred
[1]; test time 0 d
  Content (%): 99.98%
  Content of other substances (%): 0.02%
  XRPD: Unchanged
[1]; test time 5 d
  Content (%): 99.93%
  Content of other substances (%): 0.07%
  XRPD: Unchanged
[1]; test time 10 d
  Content (%): 99.96%
  Content of other substances (%): 0.04%
  XRPD: Unchanged
Solubility in ethanol
  Solubility in ethanol (in words): desirable solubility
Solubility in water
  Solubility in water (in words): desirable solubility
Tobacco seedlings [3]; 0.003 ppm
  Growth-promoting effect (in words): obvious growth-promoting effects
  7-day leaf area growth rate (%): 179.02 ± 0.15%
Tobacco seedlings [3]; 0.03 ppm
  7-day leaf area growth rate (%): 166.45 ± 0.18%
Tobacco seedlings [3]; 0.3 ppm
  7-day leaf area growth rate (%): 145.98 ± 0.39%
